Results from US8987250B2 (Gilead Sciences, Inc., priority 2012, dated 2015).

System: HIV-IIIb
Experiment: Test A: Antiviral Assay in MT4 Cells
Assay type: cell-based
Conditions: Human immunodeficiency virus 1, IIIB, MT4, 120 h, Table 1; MT-4 cells infected with HIV-IIIb, 5 days of incubation, CellTiter-Glo; read-out: EC50
Procedure: The antiviral properties of a compound of the invention may be determined using Test A described below.
Test A: Antiviral Assay in MT4 Cells
For the antiviral assay utilizing MT-4 cells, 0.4 μL of […] test concentration of 3-fold serially diluted compound in DMSO was added to 40 μL of cell growth medium (RPMI 1640, 10% FBS, 1% penicilline/Streptomycine, 1% L-Glutamine, 1% HEPES) in each well of 384-well assay plates (10 concentrations) in quadruplicate.
One mL aliquots of 2×10e6 MT-4 cells were pre-infected for 1 and 3 hours respectively, @ 37° C. with 25 uL (MT4) or of either cell growth medium (mock-infected) or a fresh 1:250 dilution of an HIV-IIIb concentrated ABI stock (0.004m.o.i. for MT4 cells). Infected and uninfected cells were diluted in cell growth medium and 35 uL of 2000 (for MT4) cells was added to each well of the assay plates.
Assay plates were then incubated in a 37° C. incubator. After 5 days of incubation, […] of 2× concentrated CellTiter-Glo™ Reagent (catalog #G7573, Promega Biosciences, Inc., Madison, Wis.) was added to each well of the assay plate. Cell lysis was carried out by incubating at room temperature for 2-3 min and then chemiluminescence was read using the Envision reader (PerkinElmer). […]

| Structure (SMILES) | EC50 |
| --- | --- |
| Cc1cc2nc(N3CC(F)C3)sc2c(-c2ccc3c4c(ccnc24)CCO3)c1[C@H](OC(C)(C)C)C(=O)O (atropisomer, axis not shown) [Compound 56, (S)-2-tert-butoxy-2-((S)-7-(2,3-dihydropyrano[4,3,2-de]quinolin-7-yl)-2-(3-fluoroazetidin-1-yl)-5-methylbenzo[d]thiazol-6-yl)acetic acid] | 0.0624 µM |
| Cc1cc2nc(N3CC(C)C3)sc2c(-c2ccc3c4c(ccnc24)CCO3)c1[C@H](OC(C)(C)C)C(=O)O (atropisomer, axis not shown) [Compound 57, (S)-2-tert-butoxy-2-((S)-7-(2,3-dihydropyrano[4,3,2-de]quinolin-7-yl)-5-methyl-2-(3-methylazetidin-1-yl)benzo[d]thiazol-6-yl)acetic acid] | 0.147 µM |
| Cc1cc2nc(N3CC(S(C)(=O)=O)C3)sc2c(-c2ccc3c4c(ccnc24)CCO3)c1[C@H](OC(C)(C)C)C(=O)O (atropisomer, axis not shown) [Compound 58, (S)-2-tert-butoxy-2-((S)-7-(2,3-dihydropyrano[4,3,2-de]quinolin-7-yl)-5-methyl-2-(3-(methylsulfonyl)azetidin-1-yl)benzo[d]thiazol-6-yl)acetic acid] | 3.52 µM |
| Cc1c([C@H](OC(C)(C)C)C(=O)O)c(-c2ccc3c4c(ccnc24)CCO3)c2sc(N3CCC3)nc2c1F (atropisomer, axis not shown) [Compound 76, (S)-2-((S)-2-(azetidin-1-yl)-7-(2,3-dihydropyrano[4,3,2-de]quinolin-7-yl)-4-fluoro-5-methylbenzo[d]thiazol-6-yl)-2-tert-butoxyacetic acid] | 0.026 µM |

Same assay, conditions: Table 1; MT-4 cells infected with HIV-IIIb, 5 days of incubation, CellTiter-Glo; read-out: EC50

| Structure (SMILES) | EC50 |
| --- | --- |
| Cc1cc2nc(N3CCCC3)sc2c(-c2ccc3c4c(ccnc24)CCO3)c1[C@H](OC(C)(C)C)C(=O)O (atropisomer, axis not shown) [Compound 50, (S)-2-tert-butoxy-2-((S)-7-(2,3-dihydropyrano[4,3,2-de]quinolin-7-yl)-5-methyl-2-(pyrrolidin-1-yl)benzo[d]thiazol-6-yl)acetic acid] | 0.0528 µM |
| Cc1cc2nc(N3CCCC3)sc2c(-c2ccc3c4c(ccnc24)CCO3)c1[C@H](OC(C)(C)C)C(=O)O (atropisomer, axis not shown) [Compound 51, (S)-2-tert-butoxy-2-((R)-7-(2,3-dihydropyrano[4,3,2-de]quinolin-7-yl)-5-methyl-2-(pyrrolidin-1-yl)benzo[d]thiazol-6-yl)acetic acid] | 5.25 µM |
| Cc1cc2nc(N3CC(F)(F)C3)sc2c(-c2ccc3c4c(ccnc24)CCO3)c1[C@H](OC(C)(C)C)C(=O)O (atropisomer, axis not shown) [Compound 52, (S)-2-tert-butoxy-2-((S)-2-(3,3-difluoroazetidin-1-yl)-7-(2,3-dihydropyrano[4,3,2-de]quinolin-7-yl)-5-methylbenzo[d]thiazol-6-yl)acetic acid] | 0.0534 µM |
| Cc1cc2nc(N3CC(F)(F)C3)sc2c(-c2ccc3c4c(ccnc24)CCO3)c1[C@H](OC(C)(C)C)C(=O)O (atropisomer, axis not shown) [Compound 53, (S)-2-tert-butoxy-2-((R)-2-(3,3-difluoroazetidin-1-yl)-7-(2,3-dihydropyrano[4,3,2-de]quinolin-7-yl)-5-methylbenzo[d]thiazol-6-yl)acetic acid] | 37.5 µM |
| COC1CN(c2nc3cc(C)c([C@H](OC(C)(C)C)C(=O)O)c(-c4ccc5c6c(ccnc46)CCO5)c3s2)C1 (atropisomer, axis not shown) [Compound 54, (S)-2-tert-butoxy-2-((S)-7-(2,3-dihydropyrano[4,3,2-de]quinolin-7-yl)-2-(3-methoxyazetidin-1-yl)-5-methylbenzo[d]thiazol-6-yl)acetic acid] | 0.274 µM |
| COC1CN(c2nc3cc(C)c([C@H](OC(C)(C)C)C(=O)O)c(-c4ccc5c6c(ccnc46)CCO5)c3s2)C1 (atropisomer, axis not shown) [Compound 55, (S)-2-tert-butoxy-2-((R)-7-(2,3-dihydropyrano[4,3,2-de]quinolin-7-yl)-2-(3-methoxyazetidin-1-yl)-5-methylbenzo[d]thiazol-6-yl)acetic acid] | 53 µM |
